Results on three compounds are retold here after patent publication US20230133037A1, “EXTENDED RELEASE GASTRORETENTIVE FORMULATION AGAINST HELICOBACTER PYLORI” (SOLSTAR PHARMA, priority 2019, published 2023).

SMILES strings stand for the structures. Converted amounts (≈) assume the structure as drawn. Where two headings read alike, the source gives them in different places.

Series [1] relates to H. pylori PremSS1 strain. Nature of the series: In vivo test of anti-Helicobacter pylori activities. The following applies: ARTE/SG 40, Nacinn 40, Amoxicillin 30 mg/kg. Also noted: species or system C57BL/6 mice. The procedure: C57BL/6 mice with SPF («specific pathogen free») status, were housed at the A2 pet store at the University of Bordeaux, in an acclimatization room for 1 week and then transferred to zone of experimentation where the project was conducted.
The H. pylori PremSS1 strain (supplied by Dr Anne Mueller, University of Zurich) was used. The functionality of the cagPAl island was verified in vitro in a coculture model with the gastric epithelial line AGS: induction of a so-called «hummingbird» phenotype.
The mice were force-fed at 6 weeks of age with the H. pylori premSS1 strain. The gavages were carried out 3 consecutive days, with a rich suspension of bacteria (2 to 3 dishes of rich culture for 5 mice). […]
The dishes were incubated at 35° C. in a microaerobic atmosphere and H. pylori was identified by its phenotypic and biochemical characteristics (morphology, urease test, oxidase test). The dishes were read after at least 5 days of incubation. […]
Quantitative PCR: the presence of H. pylori DNA and mouse housekeeping genes is quantified in the extracts by quantitative PCR in real time, by detecting the fluorescence emitted by the neo PCR products formed using Sybr Green™. […]

The nature of series [2]: Solubility in simulated gastric fluid. In kind it is physicochemical. The following applies: 0.5 g in 10 mL SGF pH 1.2, 36.5° C.; for appearance of the solution in SGF after 2 hours: 100 rev/min.
Experimental: All solutions are incubated at 36.5° C. under mild shaking with (100 rev/min) in a G24 Environmental Incubator Shaker (New Brunswick Scientific Co., N.J., USA).
The test system of series [3] is H. pylori strains. Nature of the series: Minimum inhibitory concentration, agar dilution method. In kind it is cell-based. As to conditions: Helicobacter pylori; about 59 strains, 48 h at 37° C., microaerobic.
The subject of series [4] is E. coli. Nature of the series: Antibacterial activity of artesunate with different treatments. In kind it is cell-based. As to conditions: 0.2% w/w in medium, start 1.0×10^6 CFU/mL, 18 h at 36.5° C. The procedure: Practically, a bacterial cryovial is thawed and cultured twice during 18 h at 36.5° C. in 9 mL of broth for activation.
Details of series [5]: species or system CD-1 mice. The following applies: CD-1, mouse, in vivo.
Experimental: The in vivo study was carried out on CD-1 mice (body weight approximately 20 g), and the experimental protocol is conducted according to the Animal Care Committee approval.
After review of the medical records provided by the animal supplier facility, mice are observed during 1 week for their acclimation before the experiment.
After administering the treatments as indicated above, blood samples are collected at 5, 15, 30, 45, 120 and 480 minutes after administration and mice are sacrificed. The plasma is separated by centrifugation and conserved −80° C. before processing.
An amount of 400 μL of plasma is dispersed in 1 mL of acetonitrile to precipitate proteins and agitated during 5 minutes with a vortex before placing the suspensions of the sample in an ultrasonic bath for 1 minute. The precipitated proteins are separated by centrifugation (15000 g, 5 minutes at 16° C.) and the supernatant is collected in a microplate for analysis.
Details of series [6]: species or system CD-1 mice. As to conditions: CD-1, mouse, in vivo, po, 200 mg/kg.
Experimental: The in vivo study was carried out on CD-1 mice (body weight approximately 20 g), and the experimental protocol is conducted according to the Animal Care Committee approval. After review of the medical records provided by the animal supplier facility, mice are observed during 1 week for their acclimation before the experiment.
Series [7] concerns HEL cells. Nature of the series: Cell growth, resazurin fluorescence assay. In kind it is cell-based. The following applies: 2 μM, 3 days. The procedure: (§1) Cell growth was followed via the resazurin (alamar blue) fluorescence assay. At day −1, cells were seeded in 100 μL media at a density of 4×10^3 cells/well in 96-well plates and incubated overnight at 37° C. […] Cultures were performed during 3 days after the addition of the drugs. At day 3, Resazurin (0.1 mg/mL, Sigma-Aldrich) was added at 20 μL/well, and plates were incubated for 4 h at 37° C., then fluorescence (Aex=529.5 nm, Aem =582 nm) was measured using ClarioStar™ microplate reader.
(§2) Those supposedly selected cells may be used to test for artemisinin sensitivity before and after encapsulation. This first objective, in addition to checking the sensitivity to artesunate (ARTE), is to test the sensitivity to the complex form (ARTE/Starch Glycolate) as well. This provides information on whether the encapsulation process affects the efficiency of ARTE in vitro. The effects of both drugs on the proliferation of 10 AML cell lines and 1 CML cell line was tested. Both the drug or the drug/Starch Glycolate complex were used at 2 μM, a dose that has been reported to be very efficient at least in two AML cell lines (MV4-11 and MOLM13). The ARTE/Starch Glycolate in water was prepared fresh every time for each experiment. Frozen (−20° C.) ARTE/Starch Glycolate complex was also tested in parallel to fresh ARTE/Starch Glycolate in each experiment, to evaluate stability after freezing. • a.

Series [8] deals with HL60 cells. Nature of the series: Cell growth, resazurin fluorescence assay. In kind it is cell-based. As to conditions: 2 μM, 3 days. The procedure:
as §1, §2

The subject of series [9] is ML2 cells. The series is described as follows: Cell growth, resazurin fluorescence assay. The following applies: 2 μM, 3 days. In kind it is cell-based. The protocol: as §1, §2
Series [10] has as its system MOLM13 cells. The series is described as follows: Cell growth, resazurin fluorescence assay. The following applies: 2 μM, 3 days. In kind it is cell-based. The protocol: as §1, §2
In series [11] the test system is NB4 cells. The series is described as follows: Cell growth, resazurin fluorescence assay. In kind it is cell-based. As to conditions: 2 μM, 3 days. The procedure: as §1, §2
Series [12] deals with THP1 cells. Nature of the series: Cell growth, resazurin fluorescence assay. In kind it is cell-based. The following applies: 2 μM, 3 days. The procedure: as §1, §2
For series [13], the system named is U937 cells. The series is described as follows: Cell growth, resazurin fluorescence assay. In kind it is cell-based. As to conditions: 2 μM, 3 days. The protocol: as §1, §2
The test system of series [14] is K562 cells. The series is described as follows: Cell growth, resazurin fluorescence assay. In kind it is cell-based. The following applies: 3 days. The protocol: as §2, with “Cell growth was followed via the resazurin (alamar blue) fluorescence assay. At day −1, cells were seeded in 100 μL media at a density of 4×10^3 cells/well in 96-well plates and incubated overnight at 37° C. […] Cultures were performed during 3 days after the addition of the drugs. At day 3, Resazurin (0.1 mg/mL, Sigma-Aldrich) was added at 20 μL/well, and plates were incubated for 4 h at 37° C., then fluorescence (Aex=529.5 nm, Aem =582 nm) was measured using ClarioStar™ microplate reader. […] Those” for “Those”

The test system of series [15] is KG1 cells. Nature of the series: Cell growth, resazurin fluorescence assay. In kind it is cell-based. The following applies: 3 days. The protocol: as §2, with “Cell growth was followed via the resazurin (alamar blue) fluorescence assay. At day −1, cells were seeded in 100 μL media at a density of 4×10^3 cells/well in 96-well plates and incubated overnight at 37° C. […] Cultures were performed during 3 days after the addition of the drugs. At day 3, Resazurin (0.1 mg/mL, Sigma-Aldrich) was added at 20 μL/well, and plates were incubated for 4 h at 37° C., then fluorescence (Aex=529.5 nm, Aem =582 nm) was measured using ClarioStar™ microplate reader. […] Those” for “Those”

In series [16] the test system is MV4-11 cells. Nature of the series: Cell growth, resazurin fluorescence assay. As to conditions: 3 days. In kind it is cell-based. The procedure:
as §2, with “Cell growth was followed via the resazurin (alamar blue) fluorescence assay. At day −1, cells were seeded in 100 μL media at a density of 4×10^3 cells/well in 96-well plates and incubated overnight at 37° C. […] Cultures were performed during 3 days after the addition of the drugs. At day 3, Resazurin (0.1 mg/mL, Sigma-Aldrich) was added at 20 μL/well, and plates were incubated for 4 h at 37° C., then fluorescence (Aex=529.5 nm, Aem =582 nm) was measured using ClarioStar™ microplate reader. […] Those” for “Those”

The test system of series [17] is KG1a cells. Nature of the series: Cell growth, resazurin fluorescence assay. In kind it is cell-based. The following applies: 3 days. The procedure:
Cell growth was followed via the resazurin (alamar blue) fluorescence assay. At day −1, cells were seeded in 100 μL media at a density of 4×10^3 cells/well in 96-well plates and incubated overnight at 37° C. […] Cultures were performed during 3 days after the addition of the drugs. At day 3, Resazurin (0.1 mg/mL, Sigma-Aldrich) was added at 20 μL/well, and plates were incubated for 4 h at 37° C., then fluorescence (Aex=529.5 nm, Aem =582 nm) was measured using ClarioStar™ microplate reader. […] Those supposedly selected cells may be used to test for artemisinin sensitivity before and after encapsulation. This first objective, in addition to checking the sensitivity to artesunate (ARTE), is to test the sensitivity to the complex form (ARTE/Starch Glycolate) as well. This provides information on whether the encapsulation process affects the efficiency of ARTE in vitro. The effects of both drugs on the proliferation of 10 AML cell lines and 1 CML cell line was tested. […] ARTE.SG and ARTE have the Same IC50 in 4 Representative Leukemic Cell Lines To further confirm the equivalent efficiency between ARTE and ARTE.SG, the IC50 of both drugs on 4 leukemic cell lines that cover the 3 sensitivity groups described above was calculated.

For series [18] the following is noted: according to the DrugBank; cited from earlier work.
A short description of series [19]: Water solubility / behaviour in solution. In kind it is physicochemical.

Consider `CC1(C)S[C@@H]2[C@H](NC(=O)[C@H](N)c3ccc(O)cc3)C(=O)N2[C@H]1C(=O)O` [Amoxicillin], for which, in series [1] (7 days of treatment, absence of proton pump inhibitor), the “antibacterial effect by quantitative culture or quantitative PCR (Experiment 1)” value is “no antibacterial effect”. Moreover, the “antibacterial effect by quantitative culture or quantitative PCR (Experiment 2)” value in series [1] (14 days, with Pantoprazole 150 mg/kg) is recorded as “certain antibacterial effect”.
Regarding `C[C@@H]1CCC2[C@@H](C)[C@H](OC(=O)CCC(=O)O)OC3O[C@@]4(C)CCC1[C@]32OO4` (stereo partly shown) [untreated artesunate, Artesunate], the “appearance of the solution in SGF after 2 hours” value in series [2] is “milky appearance, with an important precipitation at the bottom of vial”. For the same compound, in [2], the “appearance of the solution in SGF after 12 h” value is “no change”. In series [3], this compound showed an MIC50 of 20 µg/mL (≈ 52 µM). In addition, the MIC90 in series [3] turned out to be 80 µg/mL (≈ 208 µM). Further, in series [4], the “bacterial concentration after incubation (reduction from 10^6)” value was “no significant change”. In addition, in series [5] (iv, 3.5 mg/kg), the “AUC Area under curve” value came to 507 ± 102 ng·min/mL. Besides, the “Cl Clearance” value in [5] (iv, 3.5 mg/kg) turned out to be 6930 ± 398 mL/min/kg; in [5] (po, 200 mg/kg), 24295 ± 8527 mL/min/kg. The “Tmax Maximum peak time” value in series [5] (iv, 3.5 mg/kg) worked out at 15 min. Further, the “T½ Apparent plasma half-life” value in series [5] (iv, 3.5 mg/kg) was 12 ± 2 min. Also, the “Oral Bioavailability F” value in series [5] (po, 200 mg/kg) turned out to be 8 ± 4%. The “time to maximum concentration of DHA (prostate section, printed 'in the brain')” value in series [6] is 30 min. Also, the sensitivity group result in series [7] is on record as “moderately sensitive”; in series [8], “moderately sensitive”; in [9], “moderately sensitive”; in series [10] it was “highly sensitive”; in series [11], “highly sensitive”; in [12], “highly sensitive”. Besides, the sensitivity group entry in series [13] is “moderately sensitive”; in series [14] (2 μM) it was “low sensitivity”; in [15] (2 μM) it was “moderately sensitive”; in series [16] (2 μM), “highly sensitive”; in [17] (2 μM) it was “low sensitivity”. Besides, the IC50 in [14] (Homo sapiens, K562, 72 h, preliminary) is roughly 8 µM; in [15] (Homo sapiens, KG-1, 72 h, preliminary) it was roughly 1000 nM; in [16] (Homo sapiens, MV4-11, 72 h, preliminary), 250 to 500 nM; in series [17] (Homo sapiens, KG-1a, 72 h, preliminary), roughly 2000 nM. In addition, the water solubility in series [18] was 0.68 mg/mL (≈ 1770 µM).
Turning to `C[C@H]1[C@H](OC(=O)CCC(=O)[O-])O[C@@H]2O[C@@]3(C)CC[C@H]4[C@H](C)CC[C@@H]1[C@@]24OO3.[Na+]` [artesunate sodium salt form], in [2], the “appearance of the solution in SGF after 2 hours” value was “cloudy, but no evident precipitation is observed” and the “appearance of the solution in SGF after 12 h” value is reported as “a precipitation is formed at the bottom”. Besides, in series [19], the “solubility in water” value was “only slightly soluble”. In series [4], the “bacterial concentration after incubation (reduction from 10^6)” value is reported as 10^4 CFU/mL.
